Source: patent US4086350A, “Pharmaceutical compositions and method of producing anti-psychotic activity without extrapyramidal symptoms” (priority 1975, dated 1978)

Assays:
[1] = tested on: amphetamine-induced rotation vs. avoidance acquisition; test: R/A ratio: ED50 amphetamine-induced rotation / ED50 avoidance acquisition; assay type: in vivo, rat; details: ratio of i.p. ED50 values in rats
Description: (§1) To predict the potential ability of a drug to cause EPS, the ratio of its ED50 (i.p.) for antagonism of amphetamine-induced rotation to its ED50 (i.p.) for blockade of shock avoidance acquisition in the rat, a procedure for assessing antipsychotic activity, (R/A ratio) is calculated.

extrapyramidal symptoms = details: compared with chlorpromazine; cited from earlier work
[2] = tested on: striatal dopamine receptors; test: Antagonism of amphetamine-induced rotation in rats with unilateral substantia nigra lesions (Ungerstedt); assay type: in vivo, rat; details: i.p., piperidylidene derivatives (Table II)
Excerpt: There is evidence that antipsychotic drugs cause EPS by interfering with neurotransmission in a nigrostriatal dopaminergic pathway. It is thought that they block dopamine receptors in the neostriatum. Therefore, the ability of a drug to block striatal dopamine receptors is a measure of its EPS liability.
To assess the potency of drugs in blocking striatal dopamine receptors a procedure was used which was developed by Ungerstedt [Ungerstedt and Arbuthnott, Brain Res. 24 485 (1970); Ungerstedt, Acta physiol. scand., Suppl. 367, 49 (1971)] using rats with unilateral lesions of the substantia nigra induced by injection of 6-hydroxydopamine. This treatment causes degeneration of the nigrostriatal dopaminergic pathway accompanied by a marked decrease in the dopamine content of the neostriatum on the side of the lesion. Animals with this lesion develop postural and motor asymmetries which are altered by drugs which affect dopaminergic activity. Amphetamine, which releases dopmine and norepinephrine from catecholaminergic neurons, causes these rats to rotate unidirectionally toward the side of the lesion. Since there is a much larger amount of dopamine to be released by amphetamine from the intact nigrostriatal neurons on the non-lesioned side than from those remaining on the lesioned side, the rotational behavior is apparently due to the preponderance of activation of striatal dopamine receptors on the intact side. The ability of a drug to antagonize the rotational behavior is therefore a measure of its ability to block striatal dopamine receptors and is indicative of its potential to produce EPS.
as §1

[3] = tested on: shock avoidance acquisition in the rat; test: Antagonism of shock avoidance acquisition in the rat (antipsychotic activity); assay type: in vivo; details: ip, rats, i.p., piperidylidene derivatives (Table II), read-out: Antagonism of Avoidance Acquisition, Rats, ED50 (A)
Description: as §1

[4] = piperidylidene derivatives (Table II)

SMILES	R/A ratio ([1]; clinically established antipsychotics (Table I))	propensity to cause EPS (extrapyramidal symptoms)	R/A ratio [1, 4]	Antagonism of Amphetamine-induced Rotation, Rats, ED50 (R) [2] [mg/kg]	ED50 [3] [mg/kg]
CN1CCN(C2=Nc3cc(Cl)ccc3Nc3ccccc32)CC1 [Clozapine, reference compound]	3.8	known to produce EPS to a lesser extent than chlorpromazine			
CSc1ccc2c(c1)N(CCC1CCCCN1C)c1ccccc1S2 (stereo not drawn) [Thioridazine]		known to produce EPS to a lesser extent than chlorpromazine			
CCCCN1CCC(=C2c3ccccc3Oc3ccc(Br)cc32)CC1 [XXXII, 4-(2-bromo-9-xanthenylidene)-1-n-butylpiperidine]			5.0	3.0	0.6
CN1CCC(=C2c3ccccc3COc3cc(Cl)ccc32)CC1 [XXXIII, 4-(3-chloro-11(6H)-dibenz[b,e]oxepinylidene)-1-methylpiperidine]			> 3	> 25	7.5
